According to patent US20230266302A1, “SYNTHESIS AND USE OF N-BENZYL SULFONAMIDES” (THE UNIVERSITY OF TULSA, priority 2020, published 2023):

Experiments:
Experiment in all cases: ATP level assay (CellTiter-Glo), percent of control
Format in all cases: cell-based
PC3 (prostate cancer) = conditions: two hour incubation; for activity at 100 µM: 2 h, compound alone, control DMSO, read-out: POC (percent of control) PC3
MCF7 (breast cancer) = conditions: two hour incubation; for activity at 100 µM: Homo sapiens, MCF7, 2 h, compound alone, control DMSO, read-out: POC (percent of control) MCF7
HDF (normal cells) = conditions: two hour incubation; for activity at 100 µM: 2 h, compound alone, control DMSO, read-out: POC (percent of control) HDF
NCI-H196 (lung cancer) = conditions: two hour incubation; for activity at 100 µM: NCI-H196, 2 h, compound alone, control DMSO, read-out: POC (percent of control) NCI-H196
SkBr3 (breast cancer) = conditions: two hour incubation; for activity at 100 µM: Homo sapiens, SK-BR-3, 2 h, compound alone, control DMSO, read-out: POC (percent of control) SkBr3
HeLa (cervical cancer) = conditions: two hour incubation; for activity at 100 µM: Homo sapiens, HeLa, 2 h, compound alone, control DMSO, read-out: POC (percent of control) HeLa
T47D (breast cancer) = conditions: two hour incubation; for activity at 100 µM: Homo sapiens, T47D, 2 h, compound alone, control DMSO, read-out: POC (percent of control) T47D
[1] = test system: BxPC3 (pancreatic cancer); conditions: two hour incubation; for activity at 100 µM: Homo sapiens, BXPC-3, 2 h, compound alone, control DMSO, read-out: POC (percent of control) BxPC3
H293 (kidney cancer) = conditions: two hour incubation; for activity at 100 µM: 2 h, compound alone, control DMSO, read-out: POC (percent of control) H293
MDA-MB (breast cancer) = conditions: two hour incubation; for activity at 100 µM: 2 h, compound alone, control DMSO, read-out: POC (percent of control) MDA-MB
[2] = test system: MCF10A (non-cancerous breast); conditions: two hour incubation; for activity at 100 µM: Homo sapiens, MCF-10A, 2 h, compound alone, control DMSO, read-out: POC (percent of control) MCF10A
[3] = compound 100 uM + 2DG (about 10-20 mM)
[4] = compound 100 uM + rotenone (approximately 1.25 μM)

SMILES	activity at 100 µM (PC3 (prostate cancer)) [%]	POC (percent of control) PC3 (PC3 (prostate cancer); [3])	POC (percent of control) PC3 (PC3 (prostate cancer); [4])	activity at 100 µM (MCF7 (breast cancer)) [%]	POC (percent of control) MCF7 (MCF7 (breast cancer); [3])	POC (percent of control) MCF7 (MCF7 (breast cancer); [4])	activity at 100 µM (HDF (normal cells)) [%]	POC (percent of control) HDF (HDF (normal cells); [3])	POC (percent of control) HDF (HDF (normal cells); [4])	activity at 100 µM (NCI-H196 (lung cancer)) [%]	POC (percent of control) NCI-H196 (NCI-H196 (lung cancer); [3])	POC (percent of control) NCI-H196 (NCI-H196 (lung cancer); [4])	activity at 100 µM (SkBr3 (breast cancer)) [%]	POC (percent of control) SkBr3 (SkBr3 (breast cancer); [3])	POC (percent of control) SkBr3 (SkBr3 (breast cancer); [4])	activity at 100 µM (HeLa (cervical cancer)) [%]	POC (percent of control) HeLa (HeLa (cervical cancer); [3])	POC (percent of control) HeLa (HeLa (cervical cancer); [4])	activity at 100 µM (T47D (breast cancer)) [%]	POC (percent of control) T47D (T47D (breast cancer); [3])	other results
O=S(=O)(NCc1cscn1)c1ccc(Cl)cc1 [Compound 18, 4-chloro-N-(1,3-thiazol-4-ylmethyl)benzenesulfonamide]	74	94% of control	97.2% of control	110	137.3% of control	82% of control	96.1	93% of control	95.7% of control	97.4	108.3% of control	87.3% of control	112	107.2% of control	96.6% of control	99.5	100% of control	97.3% of control	95.7	82.8% of control	POC (percent of control) T47D (T47D (breast cancer); [4]): 100.6% of control; activity at 100 µM [1]: 100%; POC (percent of control) BxPC3 [1, 3]: 85.4% of control; POC (percent of control) BxPC3 [1, 4]: 94.3% of control; activity at 100 µM (H293 (kidney cancer)): 67.3%; POC (percent of control) H293 (H293 (kidney cancer); [3]): 96.3% of control; POC (percent of control) H293 (H293 (kidney cancer); [4]): 67.4% of control; activity at 100 µM (MDA-MB (breast cancer)): 102%; POC (percent of control) MDA-MB (MDA-MB (breast cancer); [3]): 86.1% of control; POC (percent of control) MDA-MB (MDA-MB (breast cancer); [4]): 100% of control; activity at 100 µM [2]: 119%; POC (percent of control) MCF10A [2, 3]: 92.2% of control; POC (percent of control) MCF10A [2, 4]: 86.9% of control
Cn1cc(CNS(=O)(=O)c2ccc(Cl)cc2)cn1 [Compound 11, 4-chloro-N-[(1-methyl-1H-pyrazol-4-yl)methyl]benzenesulfonamide]	113	94.6% of control	96.1% of control	118	98.4% of control	94.6% of control	77.4	101.3% of control	89.8% of control	95.2	114.7% of control	88.9% of control	101	99.7% of control	95.3% of control	103	117.6% of control	96.4% of control	59.3	90.4% of control	POC (percent of control) T47D (T47D (breast cancer); [4]): 99.6% of control; activity at 100 µM [1]: 99.2%; POC (percent of control) BxPC3 [1, 3]: 83.8% of control; POC (percent of control) BxPC3 [1, 4]: 78% of control; activity at 100 µM (H293 (kidney cancer)): 92.8%; POC (percent of control) H293 (H293 (kidney cancer); [3]): 87.4% of control; POC (percent of control) H293 (H293 (kidney cancer); [4]): 88.3% of control; activity at 100 µM (MDA-MB (breast cancer)): 95.3%; POC (percent of control) MDA-MB (MDA-MB (breast cancer); [3]): 82.4% of control; POC (percent of control) MDA-MB (MDA-MB (breast cancer); [4]): 97.9% of control; activity at 100 µM [2]: 95.4%; POC (percent of control) MCF10A [2, 3]: 95.8% of control; POC (percent of control) MCF10A [2, 4]: 93.7% of control
Cc1ccc(S(=O)(=O)NCc2coc(C)n2)cc1 [Compound 21, 4-methyl-N-[(2-methyl-1,3-oxazol-4-yl)methyl]benzenesulfonamide]	93.3	131.7% of control	110.9% of control	189	121.1% of control	111% of control	87.9	97.4% of control	113.6% of control	108	107.4% of control	130.5% of control	102	108.5% of control	106.9% of control	101	105.8% of control	109.4% of control	88.7	99.4% of control	POC (percent of control) T47D (T47D (breast cancer); [4]): 86.4% of control; activity at 100 µM [1]: 112%; POC (percent of control) BxPC3 [1, 3]: 106.8% of control; POC (percent of control) BxPC3 [1, 4]: 114.8% of control; activity at 100 µM (H293 (kidney cancer)): 115%; POC (percent of control) H293 (H293 (kidney cancer); [3]): 87.8% of control; POC (percent of control) H293 (H293 (kidney cancer); [4]): 87% of control; activity at 100 µM (MDA-MB (breast cancer)): 101%; POC (percent of control) MDA-MB (MDA-MB (breast cancer); [3]): 100.7% of control; POC (percent of control) MDA-MB (MDA-MB (breast cancer); [4]): 121.5% of control; activity at 100 µM [2]: 108%; POC (percent of control) MCF10A [2, 3]: 92.8% of control; POC (percent of control) MCF10A [2, 4]: 120% of control
Cc1cccc2[nH]cc(CNS(=O)(=O)c3ccccc3)c12 [Compound 7, N-[(4-methyl-1H-indol-3-yl)methyl]benzenesulfonamide]	95	59.4% of control	82% of control	107	91.6% of control	75.9% of control	87.7	60.8% of control	77.9% of control	84.9	70.1% of control	77.7% of control	108	76.2% of control	88.2% of control	91	70.6% of control	79.5% of control	46.5	40.1% of control	POC (percent of control) T47D (T47D (breast cancer); [4]): 66% of control; activity at 100 µM [1]: 86.3%; POC (percent of control) BxPC3 [1, 3]: 60.9% of control; POC (percent of control) BxPC3 [1, 4]: 79.1% of control; activity at 100 µM (H293 (kidney cancer)): 93.2%; POC (percent of control) H293 (H293 (kidney cancer); [3]): 60.9% of control; POC (percent of control) H293 (H293 (kidney cancer); [4]): 65.3% of control; activity at 100 µM (MDA-MB (breast cancer)): 85.6%; POC (percent of control) MDA-MB (MDA-MB (breast cancer); [3]): 81.2% of control; POC (percent of control) MDA-MB (MDA-MB (breast cancer); [4]): 102.4% of control; activity at 100 µM [2]: 66%; POC (percent of control) MCF10A [2, 3]: 64.5% of control; POC (percent of control) MCF10A [2, 4]: 97.9% of control
O=S(=O)(NCc1ccco1)c1ccc(Cl)cc1 [Compound 20, 4-chloro-N-(furan-2-ylmethyl)benzenesulfonamide]	91.1	83.8% of control	100.4% of control	138	87.3% of control	124.6% of control	90.9	88.1% of control	103.1% of control	100	90.6% of control	102.1% of control	104	96.7% of control	102.5% of control	103	91.7% of control	117.2% of control	73.9	69.7% of control	POC (percent of control) T47D (T47D (breast cancer); [4]): 101.6% of control; activity at 100 µM [1]: 95.8%; POC (percent of control) BxPC3 [1, 3]: 86.4% of control; POC (percent of control) BxPC3 [1, 4]: 94.8% of control; activity at 100 µM (H293 (kidney cancer)): 104%; POC (percent of control) H293 (H293 (kidney cancer); [3]): 84.4% of control; POC (percent of control) H293 (H293 (kidney cancer); [4]): 69.4% of control; activity at 100 µM (MDA-MB (breast cancer)): 97.4%; POC (percent of control) MDA-MB (MDA-MB (breast cancer); [3]): 82.9% of control; POC (percent of control) MDA-MB (MDA-MB (breast cancer); [4]): 98.5% of control; activity at 100 µM [2]: 102%; POC (percent of control) MCF10A [2, 3]: 78.1% of control; POC (percent of control) MCF10A [2, 4]: 102.9% of control
